Measured values taken from BindingDB's records for doi:10.1021/jm980217s (Abbott Laboratories, 1998).

Test: Binding affinity for endothelin B receptor by measuring its ability to displace [125I]-ET-3 from porcine cerebellar tissue

| Structure (SMILES) | IC50 [µM] |
| --- | --- |
| CCCCN(CCCC)C(=O)CN1C[C@H](c2ccc3c(c2)OCO3)[C@@H](C(=O)O)[C@@H]1CCN1C(=O)CCC1=O [(2S,3R,4S)-4-Benzo[1,3]dioxol-5-yl-1-dibutylcarbamoylmethyl-2-[2-(2,5-dioxo-pyrrolidin-1-yl)-ethyl]-pyrrolidine-3-carboxylic acid] | > 100 |
| CCCCN(CCCC)C(=O)CN1C[C@H](c2ccc3c(c2)OCO3)[C@@H](C(=O)O)[C@@H]1CCn1ccccc1=O [(2S,3R,4S)-4-Benzo[1,3]dioxol-5-yl-1-dibutylcarbamoylmethyl-2-[2-(2-oxo-2H-pyridin-1-yl)-ethyl]-pyrrolidine-3-carboxylic acid] | 41 |
| CCCCN(CCCC)C(=O)CN1C[C@H](c2ccc3c(c2)OCO3)[C@@H](C(=O)O)[C@@H]1CCN1CCCCC1=O [(2S,3R,4S)-4-Benzo[1,3]dioxol-5-yl-1-dibutylcarbamoylmethyl-2-[2-(2-oxo-piperidin-1-yl)-ethyl]-pyrrolidine-3-carboxylic acid] | 85 |
| CCCCN(CCCC)C(=O)CN1C[C@H](c2ccc3c(c2)OCO3)[C@@H](C(=O)O)[C@@H]1CCN1CCCC1=O [(2S,3R,4S)-4-Benzo[1,3]dioxol-5-yl-1-dibutylcarbamoylmethyl-2-[2-(2-oxo-pyrrolidin-1-yl)-ethyl]-pyrrolidine-3-carboxylic acid] | 65.4 |
| CCCCN(CCCC)C(=O)CN1C[C@H](c2ccc3c(c2)OCO3)[C@@H](C(=O)O)[C@@H]1CCC1CCCCO1 (stereo partly drawn) [(2S,3R,4S)-4-Benzo[1,3]dioxol-5-yl-1-dibutylcarbamoylmethyl-2-[2-(tetrahydro-pyran-2-yl)-ethyl]-pyrrolidine-3-carboxylic acid] | 47.8 |
| CCCCN(CCCC)C(=O)CN1C[C@H](c2ccc3c(c2)OCO3)[C@@H](C(=O)O)[C@@H]1CCC1CCOCC1 [(2S,3R,4S)-4-Benzo[1,3]dioxol-5-yl-1-dibutylcarbamoylmethyl-2-[2-(tetrahydro-pyran-4-yl)-ethyl]-pyrrolidine-3-carboxylic acid] | > 100 |

Next, values leading:

| IC50 [µM] | Structure (SMILES) |
| --- | --- |
| 48 | CCCCN(CCCC)C(=O)CN1C[C@H](c2ccc3c(c2)OCO3)[C@@H](C(=O)O)[C@@H]1CCC1OC(C)C(C)O1 (stereo partly drawn) [(2S,3R,4S)-4-Benzo[1,3]dioxol-5-yl-1-dibutylcarbamoylmethyl-2-[2-(4,5-dimethyl-[1,3]dioxolan-2-yl)-ethyl]-pyrrolidine-3-carboxylic acid] |
| 29.7 | CCCCN(CCCC)C(=O)CN1C[C@H](c2ccc3c(c2)OCO3)[C@@H](C(=O)O)[C@@H]1CCc1nc(C)c(C)o1 [(2S,3R,4S)-4-Benzo[1,3]dioxol-5-yl-1-dibutylcarbamoylmethyl-2-[2-(4,5-dimethyl-oxazol-2-yl)-ethyl]-pyrrolidine-3-carboxylic acid] |
| > 100 | CCCCN(CCCC)C(=O)CN1C[C@H](c2ccc3c(c2)OCO3)[C@@H](C(=O)O)[C@@H]1CCC1CCCO1 (stereo partly drawn) [(2S,3R,4S)-4-Benzo[1,3]dioxol-5-yl-1-dibutylcarbamoylmethyl-2-[2-(tetrahydro-furan-2-yl)-ethyl]-pyrrolidine-3-carboxylic acid] |
| 60 | C=CCCC[C@H]1[C@H](C(=O)O)[C@@H](c2ccc3c(c2)OCO3)CN1CC(=O)N(CCCC)CCCC [(2S,3R,4S)-4-Benzo[1,3]dioxol-5-yl-1-dibutylcarbamoylmethyl-2-pent-4-enyl-pyrrolidine-3-carboxylic acid] |
| 47 | CCCCC[C@H]1[C@H](C(=O)O)[C@@H](c2ccc3c(c2)OCO3)CN1CC(=O)N(CCCC)CCCC [(2S,3R,4S)-4-Benzo[1,3]dioxol-5-yl-1-dibutylcarbamoylmethyl-2-pentyl-pyrrolidine-3-carboxylic acid] |
| 10 | CCCCN(CCCC)C(=O)CN1C[C@H](c2ccc3c(c2)OCO3)[C@@H](C(=O)O)[C@@H]1CCC=C1CC1 [(2S,3R,4S)-4-Benzo[1,3]dioxol-5-yl-2-(3-cyclopropylidene-propyl)-1-dibutylcarbamoylmethyl-pyrrolidine-3-carboxylic acid] |
